From patent US20100204487A1, “PROCESS FOR MAKING THIOPHENE CARBOXAMIDE DERIVATIVES” (priority 2007, published 2010)
Structures can show the parent of a compound that is named as a salt.

How the values were obtained:
[1] = pharmacokinetics / bioavailability of free acid and salts of the compound of Formula I; details: free acid
[2] = in vivo

| SMILES | bioavailability [1] | exposure [2] |
| --- | --- | --- |
| Cc1sc(C)c(C(=O)NC2(c3ccc(C(=O)O)cc3)CC2)c1Cc1ccc(C(F)(F)F)cc1 [free acid of Formula I] | poorly bioavailable | – |
| Cc1sc(C)c(C(=O)NC2(c3ccc(C(=O)O)cc3)CC2)c1Cc1ccc(C(F)(F)F)cc1 [Et2NH salt, 4-{1-[({2,5-dimethyl-4-[4-(trifluoromethyl)benzyl]-3-thienyl}carbonyl)amino]cyclopropyl}benzoic acid diethylamine salt] | – | doubled the exposure |
